We go through two compounds from article PMC7515946, “Targeting of Perforin Inhibitor into the Brain Parenchyma Via a Prodrug Approach Can Decrease Oxidative Stress and Neuroinflammation and Improve Cell Survival” (Molecular Neurobiology, 2020).

In data set [1] the test system is mouse primary astrocytes. On the set-up: method as in PMID 31492955. Particulars: in the presence of a specific LAT1 inhibitor; cited from earlier work.
The target in a further data set is T1, LAT1 (Mus musculus, UniProt Q9Z127).
T1 construct: endogenous in cells; host or cells: mouse primary astrocytes (C57BL/6JOlaHsd), cortex and hippocampi
T1 sequence (Q9Z127 whole entry): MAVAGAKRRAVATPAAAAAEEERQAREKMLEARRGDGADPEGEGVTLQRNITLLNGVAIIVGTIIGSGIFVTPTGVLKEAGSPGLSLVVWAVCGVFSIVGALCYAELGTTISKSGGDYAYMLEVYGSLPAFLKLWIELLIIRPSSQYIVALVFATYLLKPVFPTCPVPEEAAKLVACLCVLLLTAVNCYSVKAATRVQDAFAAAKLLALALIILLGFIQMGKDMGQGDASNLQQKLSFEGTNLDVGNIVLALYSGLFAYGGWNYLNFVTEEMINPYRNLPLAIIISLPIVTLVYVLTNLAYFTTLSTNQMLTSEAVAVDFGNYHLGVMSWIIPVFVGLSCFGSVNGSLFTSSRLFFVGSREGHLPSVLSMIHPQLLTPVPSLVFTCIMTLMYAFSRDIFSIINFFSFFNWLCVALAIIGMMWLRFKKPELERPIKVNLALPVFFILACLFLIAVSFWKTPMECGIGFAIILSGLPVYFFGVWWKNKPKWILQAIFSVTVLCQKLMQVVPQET
T1 sequence (P10852 whole entry partner): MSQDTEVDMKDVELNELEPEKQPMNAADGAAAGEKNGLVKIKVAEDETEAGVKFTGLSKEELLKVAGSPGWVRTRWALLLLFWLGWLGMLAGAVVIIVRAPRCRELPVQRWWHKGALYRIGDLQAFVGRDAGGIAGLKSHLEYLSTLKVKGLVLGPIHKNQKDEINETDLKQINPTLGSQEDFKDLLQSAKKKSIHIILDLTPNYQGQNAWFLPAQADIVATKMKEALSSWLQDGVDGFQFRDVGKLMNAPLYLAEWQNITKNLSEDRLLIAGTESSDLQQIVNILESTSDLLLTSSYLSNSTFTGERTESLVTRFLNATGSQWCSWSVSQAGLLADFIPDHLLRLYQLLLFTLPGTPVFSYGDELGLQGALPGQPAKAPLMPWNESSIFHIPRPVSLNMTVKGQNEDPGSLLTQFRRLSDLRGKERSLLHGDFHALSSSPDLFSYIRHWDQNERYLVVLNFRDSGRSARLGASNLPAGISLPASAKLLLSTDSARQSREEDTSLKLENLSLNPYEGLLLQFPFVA
Briefly: Ability to bind to LAT1: inhibition of [14C]-L-leucine uptake in astrocytes. Particulars: mouse primary astrocytes, 0.76 μM [14C]-L-leucine, 5 min, 37 °C. The data set is classed as cell-based. The protocol: For the transporter-binding studies, the astrocytes were seeded on 24-well plates with a density of 10 × 10^4 cells/well 3 days before the experiments. After removal of the culture medium, the cells were carefully washed with pre-warmed HBSS (Hank’s balanced salt solution) containing choline chloride (125 mM), KCl (4.8 mM), MgSO4 (1.2 mM), KH2PO4 (1.2 mM), CaCl2 (1.3 mM), glucose (5.6 mM), and HEPES (25 mM) adjusted to pH 7.4 with 1 M NaOH. The cells were pre-incubated with 500 μL of pre-warmed HBSS at 37 °C for 5 min before the experiments. To study the ability of studied compounds to inhibit the uptake of a known LAT1 substrate, the cells were incubated at 37 °C for 5 min with an uptake buffer (HBSS, 250 μL) containing 0.76 μM (0.25 mCi/mL or […]) of [^14C]-L-leucine (PerkinElmer, Waltham, MA, USA) and 0.1–1000 μM of studied compound (or HBSS as blank). After incubation, the uptake was stopped by adding 500 μL of ice-cold HBSS, and the cells were washed two times with ice-cold HBSS (2 × 500 μL). The cells were then lysed with 500 μL of NaOH (0.1 M) for 60 min and the lysate was mixed with 3.5 mL of Emulsifier-Safe cocktail (Ultima Gold, PerkinElmer, Waltham, MA, USA). The radioactivity in the cells was measured by liquid scintillation counting (MicroBeta^2 counter, PerkinElmer Waltham, MA, USA). Half of the maximum inhibitory concentration (IC50) values were calculated by nonlinear regression analysis (fitting the curve to log (concentration) vs. remaining normalized viability).

On the set-up of data set [2]: method as in PMID 27266990. Particulars: cited from earlier work.
A further data set deals with primary astrocytes. Briefly: Ability to affect cell growth of primary astrocytes (resazurin). The data set is classed as cell-based. The conditions noted are these: 72 h.
Data set [3] has as its system MCF-7 human breast adenocarcinoma cells. The data set can be described thus: Cell viability of MCF-7 cells with cisplatin co-treatment (resazurin). It counts as cell-based. The conditions noted are these: 10–400 μM together with 100 μM cisplatin, 72 h. In general terms: Resazurin is reduced to fluorescent resorufin, in cell work by metabolically active cells.
In data set [4] the target is T2, butyrylcholinesterase (BChE) (Mus musculus, UniProt Q03311).
T2 construct: mouse brain S9 fraction was prepared by homogenizing freshly collected mouse brain; from tissue; host or cells: mouse brain S9 fraction (9000 x g supernatant)
T2 sequence (Q03311 30-603): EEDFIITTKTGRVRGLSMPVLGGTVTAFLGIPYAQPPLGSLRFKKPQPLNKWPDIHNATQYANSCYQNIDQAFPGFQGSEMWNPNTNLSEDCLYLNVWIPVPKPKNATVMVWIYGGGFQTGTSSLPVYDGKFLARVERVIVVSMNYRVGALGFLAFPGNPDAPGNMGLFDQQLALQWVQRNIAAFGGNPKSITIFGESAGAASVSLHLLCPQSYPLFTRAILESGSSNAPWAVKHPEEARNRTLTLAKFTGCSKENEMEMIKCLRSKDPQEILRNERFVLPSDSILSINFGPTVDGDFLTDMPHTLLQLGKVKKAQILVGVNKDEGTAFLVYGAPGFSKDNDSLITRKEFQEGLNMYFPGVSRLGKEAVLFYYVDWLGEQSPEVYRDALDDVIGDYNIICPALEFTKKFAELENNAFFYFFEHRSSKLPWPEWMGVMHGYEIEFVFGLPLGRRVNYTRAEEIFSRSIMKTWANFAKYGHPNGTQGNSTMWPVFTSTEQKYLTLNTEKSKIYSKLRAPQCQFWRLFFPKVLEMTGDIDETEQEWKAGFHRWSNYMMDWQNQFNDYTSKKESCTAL
It counts as biochemical. Particulars: mouse brain S9 fraction, butyrylthiocholine 1 mM, 30 min endpoint. The protocol: (§1) Briefly, mouse brain S9 fraction was prepared by homogenizing freshly collected mouse brain with 50 mM Tris-buffered saline (TBS) (pH 7.4) (1:4 w/v), centrifuging the homogenate at 9000 × g for 20 min at 4 °C and collecting the supernatant. The supernatant was then diluted 1:10 with phosphate buffer (100 mM; pH 7.0) and mixed with Ellman’s reagent (DTNB; 1 mM) and studied compounds in DMSO (DMSO concentration was less than 0.5%) on a 96-well plate as 3 parallel assays.

The target in data set [5] is T3, acetylcholinesterase (AChE) (Mus musculus, UniProt P21836).
T3 construct: mouse brain S9 fraction was prepared by homogenizing freshly collected mouse brain; from tissue; host or cells: mouse brain S9 fraction (9000 x g supernatant)
T3 sequence (P21836 32-614): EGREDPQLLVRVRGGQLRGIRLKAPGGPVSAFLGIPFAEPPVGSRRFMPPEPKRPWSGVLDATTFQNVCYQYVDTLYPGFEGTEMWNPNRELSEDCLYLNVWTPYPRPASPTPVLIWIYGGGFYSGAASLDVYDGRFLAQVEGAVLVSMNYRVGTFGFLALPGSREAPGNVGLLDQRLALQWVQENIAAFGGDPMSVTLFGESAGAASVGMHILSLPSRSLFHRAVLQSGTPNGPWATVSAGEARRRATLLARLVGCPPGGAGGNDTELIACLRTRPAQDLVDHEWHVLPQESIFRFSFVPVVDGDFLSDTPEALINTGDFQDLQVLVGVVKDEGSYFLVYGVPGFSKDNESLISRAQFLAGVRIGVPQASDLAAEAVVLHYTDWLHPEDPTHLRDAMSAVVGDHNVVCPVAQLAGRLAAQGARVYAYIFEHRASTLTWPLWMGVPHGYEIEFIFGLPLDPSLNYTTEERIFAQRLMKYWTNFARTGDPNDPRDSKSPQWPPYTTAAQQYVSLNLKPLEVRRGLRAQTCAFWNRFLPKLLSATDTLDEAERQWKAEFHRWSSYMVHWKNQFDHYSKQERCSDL
Briefly: biochemical. Particulars: for IC50: mouse brain S9 fraction, acetylthiocholine 1 mM, 30 min endpoint. The protocol: as §1
According to the Hanes–Woolf plots, the ratio of initial substrate concentration to the reaction velocity ([S]/v) was plotted against the substrate concentration (μM).

On the set-up of data set [6]: method as in PMID 26705152. The conditions noted are these: cited from earlier work.
Data set [7] concerns mouse primary astrocytes. Briefly: Intracellular unbound concentrations in astrocytes (RED dialysis, Kp,uu,cell). The data set is classed as in vitro ADME. The conditions noted are these: below 500 nM concentrations. The procedure: The non-specific binding of compounds (100 μM) was determined in astrocyte homogenate by using the Rapid Equilibrium Dialysis (RED) device (Thermo Fisher Scientific, Inc., Waltham, MA, USA). Briefly, the astrocyte cell suspension (10 × 10^6 cells/mL) was homogenized with HBSS by the SoniPerp 150 Plus disintegrator (MSE Ltd., London, UK) (2 s × 3). The studied compound was mixed with 100 μL of cell homogenate and added to the reaction chamber. A 350-μL HBSS buffer was added to the buffer chamber. The dialysis plate was incubated at 37 °C for 4 h with shaking. Fifty microliters of samples were taken from the reaction and buffer chambers and equal size of the buffer or blank homogenate were added, respectively, to yield identical matrices. The proteins were precipitated by adding 100 μL of ice-cold ACN (including the selected internal standard; see above), and the supernatants were collected for LC-MS analysis (see above) after centrifugation at 12,000 × g for 10 min. The unbound drug fraction (fu,cell) was calculated by dividing concentration in the buffer chamber by concentration in the reaction chamber and taking into account the effect of homogenate dilution factor (D = 45 for 10 × 10^6 cells/mL cell suspension according to their weight of the cells) as described earlier.
The compound concentration ratios in astrocytes (Kp) was determined at 0.01–1.0 μM concentrations by comparing the cellular uptake amount (nmol) in cell lysates (0.1 M NaOH) per astrocyte cell volume (0.05810^−15 L/cell for 10 × 10^4 cells/well) to the concentrations (nM) detected from the surrounding buffer (HBSS) collected before cell lysing as described previously. The unbound drug concentration ratio (Kp,uu) was then calculated by multiplying the drug concentration ratio (Kp) by unbound drug fraction (fu,cell).

Where “and” joins values, the source holds several entries; their conditions need not be identical. Equal values may be shown once. Entries after “also recorded” stand apart in the source; their conditions may differ.

By IC50 is commonly meant the concentration that inhibits the measured activity by half. Higher therefore signals a need for much substance.

Regarding `N[C@H](Cc1cccc(C(=O)OCc2ccc(-c3ccc(-c4ccc5c(c4)COC5=O)s3)cc2)c1)C(=O)O` [PFI-PD], in the data set with mouse primary astrocytes [1], the “Inhibition of cellular uptake into primary astrocytes by a specific LAT1 inhibitor” value is recorded as “over 70%”. The IC50 against LAT1 is 4 µM and 3.5 µM. Moreover, in data set [2] (dose 23 μmol/kg), the “Brain Cmax” value is 0.12 nmol/g of tissue and the “Unbound brain Cmax,u” value was 0.002 nmol/g of tissue. Also, the “Increase of astrocyte cell growth” value with primary astrocytes (5–100 μM, vs control cells) was 35–87%. Also, in the data set on primary astrocytes (5–400 μM), the “Effect on astrocyte cell growth / viability” value is “did not exert any inhibitory effects; also recorded: did not affect the cell viability”. The “Reversal of cisplatin-induced effects on MCF-7 cell viability” value in data set [3] is on record as “able to revert the cisplatin-induced effects”. The “BChE IC50 value” in [4] is “No inhibition”. Moreover, the “Type of AChE inhibition” value in data set [5] (Hanes–Woolf plot) is recorded as “mixed-type”. Further, the “Vmax of AChE reaction in presence of inhibitor” value in data set [5] (mouse brain S9, acetylthiocholine, PFI-PD (12 μM), without inhibitor 2.21 ± 0.01) is 2.17 nmol/min/mg protein and 2.17 ± 0.02 nmol/min/mg protein. The IC50 in [5] is 8 µM and 8.15 µM. Moreover, in data set [6], the “Bioconversion half-life in rat liver S9 subcellular fraction” value is recorded as “approximately 55 min”.

Regarding `O=C1OCc2cc(-c3ccc(-c4ccc(CO)cc4)s3)ccc21` [PFI], the “Detection in astrocyte cell lysates” value in the data set on mouse primary astrocytes [7] is listed as “not detected”. In addition, the “IC50 in astrocytes (inhibition of [14C]-L-leucine uptake)” value on LAT1 was “did not exhibit any interaction with LAT1; also recorded: No inhibition”. Besides, the “Amount of released PFI in the brain after the prodrug treatment” value in [2] (after PFI-PD 23 μmol/kg) is recorded as 0.01 nmol/g of tissue. Besides, the “Brain levels of PFI after PFI dosing” value in data set [2] (dose 23 μmol/kg, LC-MS/MS) is given as “below the detection limit”. Besides, the “Inhibition of astrocyte cell growth” value in the data set on primary astrocytes (concentrations over 100 μM, vs untreated control) was 38–68%. In addition, in [3], the “Reversal of cisplatin-induced effects on MCF-7 cell viability” value was “not able to revert the cisplatin-induced effects”. The “BChE IC50 value” in data set [4] is reported as “No inhibition”. Also, the IC50 in [5] is 12 µM and 12.3 µM.
